Measured values as given in article PMC7802229, “Alkaloid and benzopyran compounds of Melicope latifolia fruit exhibit anti-hepatitis C virus activities” (BMC Complementary Medicine and Therapies, 2021).
Values after ≈ are worked out from the molar mass of the structure shown. “Also recorded” adds a separate entry of the source. Read-outs that look alike come from different tables or passages of the source.

Tests used:
HCV JFH1a = assay: Antiviral activity assay (HCV infection of Huh7it-1 cells, titre by immunostaining); format: cell-based, hepatitis C virus (genotype 2a); conditions: for IC50: Hepatitis C virus, read-out: IC50 (anti-HCV activity); for Anti-HCV activity in words: highest concentration examined 50 μg/ml
Procedure: Hepatocyte cells of Huh7it-1 [18] were cultivated in DMEM-Dulbeco’s Modiffied Eagle Medium (GIBCO Invitrogen). The medium was supplemented with 10% Fetal Bovine Serum (FBS, GIBCO-Invitrogen), 0.15 mg/ml kanamycin solution (SIGMA) and 1x Non-Essential Amino Acids (NEAA, GIBCO-Invitrogen). The cell culture was incubated in 5% CO2 at 37 °C. HCV JFH1a was propagated in Huh7it-1 suspended in 4 ml JFH1 suspension and 4 ml DMEM and was incubated at 37 °C in 5% CO2 for 4 h. The suspension was divided into eight flasks and the supernatant was harvested on the third day. The supernatant was concentrated and examined for its viral titration and stored at − 80 °C [10].
The hepatocyte cells of Huh7it-1 were seeded on a 48 well plate with a cell density of 5.4 × 10^4 and incubated for 24 h. […] The supernatant was removed and washed with medium and placed back into solutions containing the same concentrations of extract. The cultures were then incubated for 48 h and the supernatant was taken to examine the titer infection of the sample by immunostaining.
(§1) Viral titration was performed by serially diluting the culture supernatant in DMEM medium and inoculating onto Huh7it-1 cells. After incubation for 41 h, the cells were fixed by 3.7% formaldehyde and permeabilized with 0.5% triton X-100 for 10 min. First antibody (HCV infected serum patient) was used in 1% bovine serum albumin (BSA) /2%BlockIce/ phosphate buffer saline (PBS) with a 300x dilution then incubated for 60 min. Second antibody (HRP-Goat anti human) was used in 1%BSA/2%BlockIce/PBS with a 400x dilution (50 μl/well) and then incubated for 60 min at room temperature. To visualize the infectious foci, 3,3′-diaminobenzidine (DAB) staining (DAB Thermo Scientific, USA) was used for 15 min until a brown color was observed. SPSS probit was used to calculate inhibition concentration 50% (IC50) values.

Cytotoxicity assay (MTT) = format: cell-based; conditions: human, Huh7it-1 cells, mean ± SD of triplicate
Procedure: The cytotoxicity analysis was assessed using MTT assay 3-(4,5-Dimethylthiazol-2-Yl)-2,5-Diphenyltetrazolium Bromide. Solutions with extract concentrations of 1000, 400, 100, 50, 10, 1and […] were added onto Huh7it-1 cells in 96 well plates. After 46 h incubation, the medium was removed and 150 μl/well of 10% MTT was added then incubated for 4 h. The purple precipitates were then dissolved in dimethyl sulfoxide (DMSO). The purple solution was measured for UV absorbance using a microplate reader at 560 nm. SPSS probit was used to calculate the cytotoxic concentration 50% (CC50).

[1] = tested on: murine leukemia P-388 cells; parameters: method as in PMID 34498963; conditions: cited from earlier work
[2] = tested on: N-formylmethionylleucylphenylalanine-induced superoxide production; parameters: method as in PMID 17822293; conditions: cited from earlier work
HCV NS3 protein = assay: Immunoblotting of HCV NS3 protein in infected Huh7it cells; format: cell-based, hepatitis C virus; conditions: Huh7it-HCV infected cells MOI 0.5, various concentrations, 48 h
Procedure: Huh7it-1 cells were lysed with Ripa buffer and the amount of protein was checked using a bichincronic acid (BCA) assay kit. The proteins were separated in (sodium dodecyl sulfate polyacrylamide gel electrophoresis (SDS-PAGE) gel and transferred onto a PVDF membrane (Millipore, Bed-ford, MA, USA). Five percent skimmed milk was added to block non-specific binding and incubated for 60 min. First antibody, HCV NS3-specific mouse monoclonal antibody (clone H23; Abcam, Cambridge, MA, USA) and glyceraldehyde-3-phosphate dehydrogenase (GAPDH) antibody (MBL) was added and incubated for 1 h. The 0.05% PBST was used for membrane washing. Second antibody, HRP-conjugated goat anti mouse immunoglobulin (MBL) was incubated for 1 h and the respective protein was visualized using Clarity Western ECL substrate (Biorad). The chemical luminescence was detected using ImageQuant LAS 4000 (GE healthcare).
Culture of Huh7it-HCV infected cells (MOI = 0.5) was treated with various concentration of compounds. After 48 h of incubation, cells were subjected to western blot analysis using monoclonal antibody against HCV NS3 protein. GAPDH served as an internal control

brine shrimp larvae = tested on: brine shrimp larvae; parameters: method as in PMID 19483341; conditions: cited from earlier work
[3] = tested on: HCV life cycle (entry / post-entry); assay: Time-of-addition experiment; format: cell-based; conditions: 25 μg/ml; for inhibition at 25 µg/mL: Hepatitis C virus, mean ± SD of triplicate; for Mode of action: time of addition
Procedure: A time addition experiment was performed to analyze the effect of the extract on the HCV life cycle. Entry inhibition was conducted by treated cells with extracts during viral inoculation to evaluate the inhibition in binding, entry and endocytosis. Post entry inhibition was conducted by treating cells with the extracts after viral inoculation. Supernatants were collected and viral titration and immunostaining was used to assess the mode of action.
as §1

[4] = Huh7it-1 cells, HCV JFH1a MOI 0.1, 48 h, mean ± SD of triplicate
[5] = read-out: % Inhibition During inoculation
[6] = read-out: % Inhibition During+Post inoculation
[7] = read-out: % Inhibition Post inoculation

SMILES	IC50 (HCV JFH1a; [4]) [µg/mL]	Anti-HCV activity in words (HCV JFH1a; Huh7it-1 cells)	CC50 at 46 h (Cytotoxicity assay (MTT)) [µg/mL]	IC50 (HCV JFH1a; 48 h) [µg/mL]	IC50 against murine leukemia P-388 cells [1] [µg/mL]	IC50 [2] [µM]	HCV NS3 protein level (western blot) (HCV NS3 protein)	HCV NS3 protein level (western blot) (HCV NS3 protein; listed as N-methylflidersine)	HCV NS3 protein level (western blot) (HCV NS3 protein; listed as N-methylflindersin)	LD50 towards brine shrimp larvae (brine shrimp larvae) [µg/mL]	inhibition at 25 µg/mL [3, 5] [%]	inhibition at 25 µg/mL [3, 6] [%]	inhibition at 25 µg/mL [3, 7] [%]	Mode of action [3]
COc1cc(O)c(C(C)=O)c2c1C=CC(C)(C)O2 [Alloevodionol]	41.1 ± 3.1 (≈ 166 µM)	less active; also recorded: moderate inhibition	> 1000	–	–	–	–	–	–	–	–	–	–	–
COc1cc2oc(=O)ccc2c2c1C=CC(C)(C)O2 [Alloxanthoxyletin]	21.7 ± 2.2 (≈ 84.1 µM)	–	93 ± 3 (≈ 360 µM)	–	–	–	–	–	–	–	–	–	–	–
COc1c2ccoc2c(OC)c2oc(=O)ccc12 [Isopimpinellin]	–	less active; also recorded: did not reveal anti-HCV activities	> 1000	> 50	–	–	–	–	–	–	–	–	–	–
COc1cc2c(c(OC)c1C(C)=O)C=CC(C)(C)O2 [Methylevodionol]	–	less active; also recorded: did not reveal anti-HCV activities	310 ± 2.5 (≈ 1180 µM)	> 50	11.98 (≈ 45.7 µM)	–	–	–	–	–	–	–	–	–
Cn1c(=O)c2c(c3ccccc31)OC(C)(C)C=C2 [N-methylflindersine]	3.8 ± 2.7 (≈ 15.7 µM)	–	97 ± 3.3 (≈ 402 µM)	–	21.06 (≈ 87.3 µM)	< 12	HCV NS3 protein reduction	decreased level of HCV NS3 protein expression	decreased HCV NS3 protein level	1.39	7.7 ± 1.8	83 ± 0.8	84.1 ± 2.9	inhibit HCV in the post-entry step; also recorded: Post-entry inhibition
COc1c2c(c3c(c1C(C)=O)OC(C)(C)C=C3)OC(C)(C)C=C2 [O-methyloktadrenolon]	10.9 ± 1.2 (≈ 34.7 µM)	–	63 ± 2.3 (≈ 200 µM)	–	–	–	decreased HCV NS3 protein level	–	–	–	9.1 ± 8.5	98.4 ± 0.4	98 ± 0.9	inhibit HCV in the post-entry step; also recorded: Post-entry inhibition
